{"source": "patent US9517269B1", "about": "“Stable pentobarbital formulation” (Akorn, Inc., priority 2013, dated 2016)", "key": {"[1]": {"assay": "Formulation Development Study #4 (target pH 9.0): physical observations", "type": "physicochemical", "settings": "pH ˜9.0 and propylene glycol concentration less than 50%", "description": "Four lab batches similar to Formulation Development Study #3 were made. The purpose of these batches was to find out if impurity at RRT 0.7 can be reduced by making lab batches with different concentrations of propylene glycol and alcohol at the target pH of 9.0. […] These four lab batches were placed on stability at room temperature, 40° C., and 50° C."}, "[2]": {"assay": "Formulation Development Study #5 (44% propylene glycol): physical observations", "type": "physicochemical", "settings": "with 44% propylene glycol at pH-9.0", "description": "In order to determine at what pH precipitate forms at room temperature, three lab batches were made with 44% propylene glycol and target pH at 9.1, 9.0 and 8.9. […] Lab batch samples were placed on stability at room temperature, 40° C., and 50° C. for three months. Only physical observations were performed during the stability study."}, "[3]": {"settings": "background statement; cited from earlier work"}, "[4]": {"assay": "Formulation Development Study #2 (target pH 8.70): physical observations", "type": "physicochemical", "settings": "below pH 8.7", "description": "Based on Formulation Development Study #1, four more lab batches were made with different concentrations of propylene glycol and ethyl alcohol at target pH 8.70. The purpose of the study was to determine the influence of low pH and different concentrations of propylene glycol and ethyl alcohol on the product quality. Physical observations were recorded during compounding. Lab batch samples were placed on stability at room temperature, 40° C. and 50° C. Only physical observations were performed and recorded during stability. The stability study lasted one month."}}}
{"compound": "CCCC(C)C1(CC)C(=O)NC(=O)NC1=O", "note": "(stereo not shown) [pentobarbital, 5-Ethyl-5-(1-methylbutyl)-2,4,6(1H,3H,5H)-pyrimidinetrione]", "values": [{"measurement": "Stability of pentobarbital in solution (precipitation)", "setting": "[1]", "value": "not stable"}, {"measurement": "Stability of pentobarbital in solution (precipitation)", "setting": "[2]", "value": "not stable"}, {"measurement": "pH at which pentobarbital precipitates", "setting": "[3]", "value": "less than 9.0"}, {"measurement": "Stability of pentobarbital in solution (precipitation)", "setting": "[4]", "value": "not stable"}]}
